Experimental data from patent US10202361B2, “Pyridazinones as herbicides” (E I DU PONT DE NEMOURS AND COMPANY, priority 2014, dated 2019).
Like-named read-outs stand apart in the source and are kept apart here.

Legend:
Assay type in all cases: in vivo
[1] = tested on: oilseed rape (Brassica napus); test: Test C pre-/postemergence greenhouse herbicide test; conditions: Oilseed Rape
How it was run: (§1)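 Seeds in loam–sand blend sprayed preemergence, and 1- to 4-leaf plants (2–18 cm) sprayed postemergence, with compounds in non-phytotoxic solvent plus surfactant. Visual rating versus controls after 13–15 d in greenhouse, 0 (no effect) to 100 (complete control).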

[2] = tested on: morningglory (Ipomoea coccinea); test: as above; conditions: Morningglory
How it was run: as §1

kochia (Kochia scoparia) = test: as above; conditions: Postemergence
How it was run: as §1

[3] = tested on: ryegrass, Italian (Italian ryegrass, Lolium multiflorum); test: as above; conditions: Lolium multiflorum, Ryegrass, Italian, read-out: Plant response rating; for pest or weed control at 31 g/ha: 31 g ai/ha; for pest or weed control at 62 g/ha: 62 g ai/ha; for pest or weed control at 125 g/ha: 125 g ai/ha; for pest or weed control at 250 g/ha: 250 g ai/ha
How it was run: as §1

[4] = tested on: galium (catchweed bedstraw, Galium aparine); test: as above; conditions: Galium, read-out: Plant response rating; for pest or weed control at 31 g/ha: 31 g ai/ha; for pest or weed control at 62 g/ha: 62 g ai/ha; for pest or weed control at 125 g/ha: 125 g ai/ha; for pest or weed control at 250 g/ha: 250 g ai/ha
How it was run: as §1

[5] = tested on: foxtail, giant (giant foxtail, Setaria faberii); test: as above; conditions: Setaria faberi, Foxtail, Giant, read-out: Plant response rating; for pest or weed control at 31 g/ha: 31 g ai/ha; for pest or weed control at 62 g/ha: 62 g ai/ha; for pest or weed control at 125 g/ha: 125 g ai/ha; for pest or weed control at 250 g/ha: 250 g ai/ha
How it was run: as §1

[6] = tested on: velvetleaf (Abutilon theophrasti); test: as above; conditions: Abutilon theophrasti, Velvetleaf, read-out: Plant response rating; for pest or weed control at 31 g/ha: 31 g ai/ha; for pest or weed control at 62 g/ha: 62 g ai/ha; for pest or weed control at 125 g/ha: 125 g ai/ha; for pest or weed control at 250 g/ha: 250 g ai/ha
How it was run: as §1

rice (Oryza sativa) = test: Test B flooded paddy test; conditions: Oryza sativa, 312 h; Flood, 125 g ai/ha; scale of 0 to 100, 0 is no effect, 100 is complete control; 13 to 15 d; read-out: Plant response rating, Rice
How it was run: (§2)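 Plants at the 2-leaf stage were flooded to 3 cm and treated by applying compound directly to the paddy water, with depth held constant throughout. After 13–15 d in a greenhouse, injury was rated visually against controls on a 0 (no effect) to 100 (complete control) scale.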

[7] = tested on: barnyardgrass (Echinochloa crus-galli); test: Test B flooded paddy test; conditions: Echinochloa crus-galli, 312 h; Flood, 125 g ai/ha; scale of 0 to 100, 0 is no effect, 100 is complete control; 13 to 15 d; read-out: Plant response rating, Barnyardgrass
How it was run: as §2

[8] = tested on: ducksalad (Heteranthera limosa); test: Test B flooded paddy test; conditions: Heteranthera limosa, 312 h; Flood, 125 g ai/ha; scale of 0 to 100, 0 is no effect, 100 is complete control; 13 to 15 d; read-out: Plant response rating, Ducksalad
How it was run: as §2

[9] = tested on: sedge, umbrella (small-flower umbrella sedge, Cyperus difformis); test: Test B flooded paddy test; conditions: Cyperus difformis, 312 h; Flood, 125 g ai/ha; scale of 0 to 100, 0 is no effect, 100 is complete control; 13 to 15 d; read-out: Plant response rating, Sedge, Umbrella
How it was run: as §2

Compound: Cc1cc(=O)n(-c2ccc(F)cc2)nc1Cc1ccnc(C(F)(F)F)c1 [Compound 1, 2-(4-fluorophenyl)-5-methyl-6-[[2-(trifluoromethyl)-4-pyridinyl]methyl]-3(2H)-pyridazinone]
- Plant response rating ([1]; Postemergence, 31 g ai/ha): 5
- Plant response rating ([1]; Postemergence, 62 g ai/ha): 5
- Plant response rating ([1]; Postemergence, 125 g ai/ha): 10
- Plant response rating ([1]; Postemergence, 250 g ai/ha): 30
- Plant response rating ([1]; Preemergence, 31 g ai/ha): 30
- Plant response rating ([1]; Preemergence, 62 g ai/ha): 80
- Plant response rating ([1]; Preemergence, 125 g ai/ha): 100
- Plant response rating ([1]; Preemergence, 250 g ai/ha): 100
- Plant response rating ([2]; Postemergence, 31 g ai/ha): 60
- Plant response rating ([2]; Postemergence, 125 g ai/ha): 70
- Plant response rating ([2]; Postemergence, 250 g ai/ha): 70
- Plant response rating ([2]; Preemergence, 31 g ai/ha): 50
- Plant response rating ([2]; Preemergence, 62 g ai/ha): 90
- Plant response rating ([2]; Preemergence, 125 g ai/ha): 100
- Plant response rating ([2]; Preemergence, 250 g ai/ha): 100
- Plant response rating (kochia (Kochia scoparia); 31 g ai/ha): 80
- Plant response rating (kochia (Kochia scoparia); 62 g ai/ha): 80
- Plant response rating (kochia (Kochia scoparia); 125 g ai/ha): 85
- Plant response rating (kochia (Kochia scoparia); 250 g ai/ha): 85
- pest or weed control at 31 g/ha ([3]; post-emergence, Postemergence): 5%
- pest or weed control at 62 g/ha ([3]; post-emergence, Postemergence): 5%
- pest or weed control at 125 g/ha ([3]; post-emergence, Postemergence): 5%
- pest or weed control at 250 g/ha ([3]; post-emergence, Postemergence): 5%
- pest or weed control at 31 g/ha ([3]; pre-emergence, Preemergence): 5%
- pest or weed control at 62 g/ha ([3]; pre-emergence, Preemergence): 10%
- pest or weed control at 125 g/ha ([3]; pre-emergence, Preemergence): 85%
- pest or weed control at 250 g/ha ([3]; pre-emergence, Preemergence): 98%
- pest or weed control at 31 g/ha ([4]; post-emergence, Postemergence): 40%
- pest or weed control at 62 g/ha ([4]; post-emergence, Postemergence): 65%
- pest or weed control at 125 g/ha ([4]; post-emergence, Postemergence): 70%
- pest or weed control at 250 g/ha ([4]; post-emergence, Postemergence): 70%
- pest or weed control at 31 g/ha ([4]; pre-emergence, Preemergence): 95%
- pest or weed control at 62 g/ha ([4]; pre-emergence, Preemergence): 100%
- pest or weed control at 125 g/ha ([4]; pre-emergence, Preemergence): 100%
- pest or weed control at 250 g/ha ([4]; pre-emergence, Preemergence): 100%
- pest or weed control at 31 g/ha ([5]; post-emergence, Postemergence): 10%
- pest or weed control at 62 g/ha ([5]; post-emergence, Postemergence): 10%
- pest or weed control at 125 g/ha ([5]; post-emergence, Postemergence): 15%
- pest or weed control at 250 g/ha ([5]; post-emergence, Postemergence): 20%
- pest or weed control at 31 g/ha ([5]; pre-emergence, Preemergence): 100%
- pest or weed control at 62 g/ha ([5]; pre-emergence, Preemergence): 100%
- pest or weed control at 125 g/ha ([5]; pre-emergence, Preemergence): 100%
- pest or weed control at 250 g/ha ([5]; pre-emergence, Preemergence): 100%
- pest or weed control at 31 g/ha ([6]; post-emergence, Postemergence): 10%
- pest or weed control at 62 g/ha ([6]; post-emergence, Postemergence): 20%
- pest or weed control at 125 g/ha ([6]; post-emergence, Postemergence): 20%
- pest or weed control at 250 g/ha ([6]; post-emergence, Postemergence): 30%
- pest or weed control at 62 g/ha ([6]; pre-emergence, Preemergence): 35%
- pest or weed control at 125 g/ha ([6]; pre-emergence, Preemergence): 40%
- pest or weed control at 250 g/ha ([6]; pre-emergence, Preemergence): 100%
- plant injury at 125 g/ha (rice (Oryza sativa)): 20%
- pest or weed control at 125 g/ha [7]: 10%
- pest or weed control at 125 g/ha [8]: 60%
- pest or weed control at 125 g/ha [9]: 80%

Compound: Cc1cc(=O)n(-c2ccc(C(F)(F)F)cc2)nc1Cc1ccnc(C(F)(F)F)c1 [Compound 2, 5-methyl-2-[4-(trifluoromethyl)phenyl]-6-[[2-(trifluoromethyl)-4-pyridinyl]methyl]-3(2H)-pyridazinone]
- Plant response rating ([1]; Postemergence, 31 g ai/ha): 5
- Plant response rating ([1]; Postemergence, 62 g ai/ha): 30
- Plant response rating ([1]; Postemergence, 125 g ai/ha): 45
- Plant response rating ([1]; Postemergence, 250 g ai/ha): 50
- Plant response rating ([1]; Preemergence, 31 g ai/ha): 100
- Plant response rating ([1]; Preemergence, 62 g ai/ha): 100
- Plant response rating ([1]; Preemergence, 125 g ai/ha): 100
- Plant response rating ([1]; Preemergence, 250 g ai/ha): 100
- Plant response rating ([2]; Postemergence, 31 g ai/ha): 10
- Plant response rating ([2]; Postemergence, 125 g ai/ha): 15
- Plant response rating ([2]; Postemergence, 250 g ai/ha): 15
- Plant response rating ([2]; Preemergence, 31 g ai/ha): 55
- Plant response rating ([2]; Preemergence, 62 g ai/ha): 65
- Plant response rating ([2]; Preemergence, 125 g ai/ha): 85
- Plant response rating ([2]; Preemergence, 250 g ai/ha): 100
- Plant response rating (kochia (Kochia scoparia); 31 g ai/ha): 80
- Plant response rating (kochia (Kochia scoparia); 62 g ai/ha): 85
- Plant response rating (kochia (Kochia scoparia); 125 g ai/ha): 90
- Plant response rating (kochia (Kochia scoparia); 250 g ai/ha): 90
- pest or weed control at 31 g/ha ([3]; post-emergence, Postemergence): 5%
- pest or weed control at 62 g/ha ([3]; post-emergence, Postemergence): 5%
- pest or weed control at 125 g/ha ([3]; post-emergence, Postemergence): 5%
- pest or weed control at 250 g/ha ([3]; post-emergence, Postemergence): 5%
- pest or weed control at 31 g/ha ([3]; pre-emergence, Preemergence): 5%
- pest or weed control at 62 g/ha ([3]; pre-emergence, Preemergence): 15%
- pest or weed control at 125 g/ha ([3]; pre-emergence, Preemergence): 65%
- pest or weed control at 250 g/ha ([3]; pre-emergence, Preemergence): 85%
- pest or weed control at 31 g/ha ([4]; post-emergence, Postemergence): 50%
- pest or weed control at 62 g/ha ([4]; post-emergence, Postemergence): 80%
- pest or weed control at 125 g/ha ([4]; post-emergence, Postemergence): 80%
- pest or weed control at 250 g/ha ([4]; post-emergence, Postemergence): 85%
- pest or weed control at 62 g/ha ([4]; pre-emergence, Preemergence): 85%
- pest or weed control at 125 g/ha ([4]; pre-emergence, Preemergence): 98%
- pest or weed control at 250 g/ha ([4]; pre-emergence, Preemergence): 100%
- pest or weed control at 31 g/ha ([5]; post-emergence, Postemergence): 10%
- pest or weed control at 62 g/ha ([5]; post-emergence, Postemergence): 10%
- pest or weed control at 125 g/ha ([5]; post-emergence, Postemergence): 25%
- pest or weed control at 250 g/ha ([5]; post-emergence, Postemergence): 25%
- pest or weed control at 31 g/ha ([5]; pre-emergence, Preemergence): 45%
- pest or weed control at 62 g/ha ([5]; pre-emergence, Preemergence): 98%
- pest or weed control at 125 g/ha ([5]; pre-emergence, Preemergence): 100%
- pest or weed control at 250 g/ha ([5]; pre-emergence, Preemergence): 100%
- pest or weed control at 31 g/ha ([6]; post-emergence, Postemergence): 25%
- pest or weed control at 62 g/ha ([6]; post-emergence, Postemergence): 30%
- pest or weed control at 125 g/ha ([6]; post-emergence, Postemergence): 30%
- pest or weed control at 250 g/ha ([6]; post-emergence, Postemergence): 35%
- pest or weed control at 62 g/ha ([6]; pre-emergence, Preemergence): 40%
- pest or weed control at 125 g/ha ([6]; pre-emergence, Preemergence): 85%
- pest or weed control at 250 g/ha ([6]; pre-emergence, Preemergence): 85%
- plant injury at 125 g/ha (rice (Oryza sativa)): 0%
- pest or weed control at 125 g/ha [7]: 0%
- pest or weed control at 125 g/ha [8]: 10%
- pest or weed control at 125 g/ha [9]: 80%
